Results published in ChEMBL document CHEMBL4049409, “Structure-based discovery of LpxC inhibitors” (Bioorg Med Chem Lett, 2017).
In brackets after ≈: the same amount, converted by molar mass.

Key:
Pseudomonas aeruginosa [1] = assay: Antibacterial activity against Pseudomonas aeruginosa isolate 839 harboring mexAB-oprM deletion mutant; format: functional
Escherichia coli = assay: Antibacterial activity against Escherichia coli isolate 35 ATCC 25922; format: functional
Klebsiella pneumoniae = assay: Antibacterial activity against Klebsiella pneumoniae isolate 21 ATCC 4352; format: functional
[2] = molecular target: T1, UDP-3-O-acyl-N-acetylglucosamine deacetylase (Pseudomonas aeruginosa (strain ATCC 15692 / PAO1 / 1C / PRS 101 / LMG12228), UniProt P47205); assay: Inhibition of LpxC in Pseudomonas aeruginosa isolate 44 ATCC 27853
T1 sequence (P47205 whole entry): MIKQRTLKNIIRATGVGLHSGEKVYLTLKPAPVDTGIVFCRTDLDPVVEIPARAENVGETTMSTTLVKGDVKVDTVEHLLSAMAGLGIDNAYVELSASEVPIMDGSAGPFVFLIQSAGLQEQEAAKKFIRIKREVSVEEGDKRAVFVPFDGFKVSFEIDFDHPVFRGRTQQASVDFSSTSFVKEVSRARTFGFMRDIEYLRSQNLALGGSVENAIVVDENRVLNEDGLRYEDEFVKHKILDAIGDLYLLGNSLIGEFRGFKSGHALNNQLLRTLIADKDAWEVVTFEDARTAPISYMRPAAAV

[3] = molecular target: T2, UDP-3-O-acyl-N-acetylglucosamine deacetylase (Escherichia coli K-12, UniProt P0A725); assay: Inhibition of LpxC in Escherichia coli isolate 35 ATCC 25922; design: species or system Escherichia coli ATCC 25922
T2 sequence (P0A725 whole entry): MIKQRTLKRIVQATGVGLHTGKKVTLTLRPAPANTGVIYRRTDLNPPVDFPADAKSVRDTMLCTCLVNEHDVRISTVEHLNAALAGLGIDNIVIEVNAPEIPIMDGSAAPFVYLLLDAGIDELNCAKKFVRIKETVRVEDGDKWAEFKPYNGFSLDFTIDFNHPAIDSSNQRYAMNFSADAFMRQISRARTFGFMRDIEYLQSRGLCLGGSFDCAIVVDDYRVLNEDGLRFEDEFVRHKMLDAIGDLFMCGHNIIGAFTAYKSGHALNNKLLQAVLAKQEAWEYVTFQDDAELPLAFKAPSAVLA

[4] = Inhibition of LpxC in Klebsiella pneumoniae isolate 21 ATCC 4352
Pseudomonas aeruginosa [5] = assay: Antibacterial activity against Pseudomonas aeruginosa isolate 44 ATCC 27853; format: functional
Pseudomonas aeruginosa [6] = assay: Antibacterial activity against Pseudomonas aeruginosa isolate 847; format: functional
Acinetobacter baumannii = assay: Antibacterial activity against Acinetobacter baumannii focus ID 961025; format: functional
[7] = molecular target: T1, UDP-3-O-acyl-N-acetylglucosamine deacetylase; assay: Inhibition of LpxC in Pseudomonas aeruginosa isolate 847
[8] = Inhibition of LpxC in Acinetobacter baumannii focus ID 961025

| Structure (SMILES) | MIC (Pseudomonas aeruginosa [1]) [µg/mL] | MIC (Escherichia coli) [µg/mL] | MIC (Klebsiella pneumoniae) [µg/mL] | IC50 [2] [nM] | IC50 [3] [nM] | IC50 [4] [nM] | MIC (Pseudomonas aeruginosa [5]) [µg/mL] | MIC (Pseudomonas aeruginosa [6]) [µg/mL] | MIC (Acinetobacter baumannii) [µg/mL] | IC50 [7] [nM] | IC50 [8] [nM] |
| --- | --- | --- | --- | --- | --- | --- | --- | --- | --- | --- | --- |
| C[C@@H](O)[C@H](N[C@H]1CCc2cc(C#Cc3ccc(CN4CCN(C)CC4)cc3)ccc21)C(=O)NO | 1 (≈ 2.16 µM) | 0.25 (≈ 0.54 µM) | 0.125 (≈ 0.27 µM) | 30 | 53 | 32 | 8 (≈ 17.3 µM) | – | – | – | – |
| C[C@@H](O)[C@H](N[C@H]1CCc2cc(C#Cc3ccc(Cn4ccnc4CO)cc3)ccc21)C(=O)NO | 0.5 (≈ 1.09 µM) | 1 (≈ 2.17 µM) | – | – | 6 | 4 | 4 (≈ 8.69 µM) | 4 (≈ 8.69 µM) | – | – | – |
| C[C@@H](O)[C@H](N[C@H]1CCc2cc(C#Cc3ccc(CN4CCCCC4)cc3)ccc21)C(=O)NO | 2 (≈ 4.47 µM) | 0.5 (≈ 1.12 µM) | 0.5 (≈ 1.12 µM) | 10 | 10 | 5 | 16 (≈ 35.7 µM) | – | – | – | – |
| CNCCOCc1ccc(C#Cc2ccc3c(c2)CC[C@@H]3N[C@H](C(=O)NO)[C@@H](C)O)cc1 | 2 (≈ 4.57 µM) | 4 (≈ 9.14 µM) | 0.25 (≈ 0.571 µM) | 6 | 15 | 11 | 16 (≈ 36.6 µM) | – | – | – | – |
| CC(C)(N)[C@H](NC1COCc2cc(C#Cc3ccc(CN4CCOCC4)cc3)ccc21)C(=O)NO (stereo partly drawn) | 0.25 (≈ 0.522 µM) | 0.5 (≈ 1.04 µM) | – | 8 | 5 | – | 4 (≈ 8.36 µM) | 4 (≈ 8.36 µM) | – | – | – |
| C[C@@H](O)[C@H](N[C@H]1CCc2cc(C#Cc3ccc(CN4CCN(CCO)CC4)cc3)ccc21)C(=O)NO | 1 (≈ 2.03 µM) | 2 (≈ 4.06 µM) | < 0.125 | 14 | 20 | 21 | 4 (≈ 8.12 µM) | – | – | – | – |
| COC1CCN(Cc2ccc(C#Cc3ccc4c(c3)CC[C@@H]4N[C@H](C(=O)NO)[C@@H](C)O)cc2)CC1 | 1 (≈ 2.09 µM) | 0.5 (≈ 1.05 µM) | 0.06 (≈ 0.126 µM) | 3 | 5 | 6 | 8 (≈ 16.8 µM) | – | – | – | – |
| CC(C)(O)[C@H](N[C@H]1CCc2cc(C#Cc3ccc(CN4CCN(CCO)CC4)cc3)ccc21)C(=O)NO | 0.5 (≈ 0.987 µM) | 4 (≈ 7.9 µM) | – | 14 | 41 | – | 4 (≈ 7.9 µM) | 32 (≈ 63.2 µM) | – | – | – |
| CC(C)(N)[C@H](NC1COCc2cc(C#Cc3ccc(Cn4ccnc4CO)cc3)ccc21)C(=O)NO (stereo partly drawn) | 0.5 (≈ 1.02 µM) | 4 (≈ 8.17 µM) | – | 5 | 3 | – | 4 (≈ 8.17 µM) | 16 (≈ 32.7 µM) | – | – | – |
| C[C@@H](O)[C@H](N[C@H]1CCc2cc(C#Cc3ccc(CN4CC[C@@H](O)C4)cc3)ccc21)C(=O)NO | 1 (≈ 2.22 µM) | 2 (≈ 4.45 µM) | 0.5 (≈ 1.11 µM) | 26 | 51 | 38 | 8 (≈ 17.8 µM) | – | – | – | – |
| C[C@@H](O)[C@H](N[C@H]1CCc2cc(C#Cc3ccc(CN4CCOCC4)cc3)ccc21)C(=O)NO | 0.25 (≈ 0.556 µM) | < 0.125 | < 0.125 | 3 | 2 | 2 | 8 (≈ 17.8 µM) | 2 (≈ 4.45 µM) | 32 (≈ 71.2 µM) | 2 | 70 |
| C[C@@H](O)[C@H](NC1CCc2cc(C#Cc3ccc(CN4CCOCC4)cc3)ccc21)C(=O)NO (stereo partly drawn) | – | 0.25 (≈ 0.556 µM) | 0.125 (≈ 0.278 µM) | 4 | 2 | 2 | 8 (≈ 17.8 µM) | – | > 64 | – | 382 |
| Cc1nccn1Cc1ccc(C#Cc2ccc3c(c2)CC[C@@H]3N[C@H](C(=O)NO)[C@@H](C)O)cc1 | 0.25 (≈ 0.562 µM) | 0.25 (≈ 0.562 µM) | 0.06 (≈ 0.135 µM) | 4 | 1 | 2 | 8 (≈ 18 µM) | – | – | – | – |
| C[C@@H](O)[C@H](N[C@H]1CCc2cc(C#Cc3ccc(CN4CC(O)C4)cc3)ccc21)C(=O)NO | 0.5 (≈ 1.15 µM) | 4 (≈ 9.18 µM) | 0.125 (≈ 0.287 µM) | 63 | 127 | – | 4 (≈ 9.18 µM) | – | – | – | – |
| C[C@@H](O)[C@H](NC1CCCCc2cc(C#Cc3ccccc3)ccc21)C(=O)NO (stereo partly drawn) | – | 16 (≈ 42.3 µM) | 2 (≈ 5.28 µM) | 333 | 109 | 72 | > 128 | – | > 128 | – | 1160 |
| CC(C)(N)[C@H](N[C@H]1CCc2cc(C#Cc3ccc(CN4CCOCC4)cc3)ccc21)C(=O)NO | 0.25 (≈ 0.54 µM) | 0.5 (≈ 1.08 µM) | – | 6 | 2 | – | 4 (≈ 8.65 µM) | 0.5 (≈ 1.08 µM) | – | 1 | – |
| C[C@@H](O)[C@H](NC1CCCc2cc(C#Cc3ccc(CN4CCOCC4)cc3)ccc21)C(=O)NO (stereo partly drawn) | – | 0.25 (≈ 0.539 µM) | < 0.125 | 2 | 0.3 | 0.2 | 32 (≈ 69 µM) | – | 128 (≈ 276 µM) | – | 80 |
| C[C@@H](O)[C@H](N[C@H]1CCc2cc(C#Cc3ccc(Cn4ccnc4CCO)cc3)ccc21)C(=O)NO | 0.125 (≈ 0.263 µM) | 1 (≈ 2.11 µM) | – | 5 | 5 | 3 | 4 (≈ 8.43 µM) | 4 (≈ 8.43 µM) | – | – | – |
| CC(C)(O)[C@H](N[C@H]1CCc2cc(C#Cc3ccc(CN4CCOCC4)cc3)ccc21)C(=O)NO | 0.25 (≈ 0.539 µM) | 0.25 (≈ 0.539 µM) | < 0.03 | 3 | 1 | – | 32 (≈ 69 µM) | – | – | 0.4 | – |
| C[C@@H](O)[C@H](NC1COCc2cc(C#Cc3ccccc3)ccc21)C(=O)NO (stereo partly drawn) | – | 0.25 (≈ 0.682 µM) | < 0.125 | 14 | 2 | 1 | 64 (≈ 175 µM) | – | 32 (≈ 87.3 µM) | – | 49 |
